Our source for the IC50 values is patent publication US20250332173A1, “COMPOUNDS AND METHODS FOR MODULATING NUCLEIC ACID SPLICING” (REMIX THERAPEUTICS INC., priority 2021, published 2025).

Experiment [1] deals with MYB. The experiment in a line: HiBiT protein abundance assay, MYB HiBiT K562 cell line. It counts as cell-based, human. The settings on record: HiBiT K562 cell line, 24 hours, top dose 10 μM; read-out: Effect on protein abundance, MYB (IC50 category). The gist of the method:
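K562 knock-in lines with endogenous HiBiT-tagged target, 10,000 cells/well in IMDM + FBS, treated 24 h at 37° C with 10-point 3-fold dilutions (top 10 μM final; DMSO ≤0.25%). Lytic Nano-Glo HiBiT luminescence normalized to untagged K562 baseline and DMSO controls; IC50 = concentration giving 50% abundance via four-parameter fit.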

The test system of experiment [2] is Target C. Put plainly: HiBiT protein abundance assay, Target C (Promega Nano-Glo HiBiT Lytic Detection System, knock-in K562 cell line). It counts as cell-based, human. The settings on record: Homo sapiens, K562, 24 h, HiBiT K562 cell line, 24 hours, top dose 10 μM; read-out: Effect on protein abundance, Target C (IC50 category). Put shortly: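 Knock-in K562 cells carrying HiBiT-tagged Target C, 10,000 per well, treated 24 h at 37 °C with 10-point threefold dilutions (top 10 μM final, ≤0.25% DMSO). Lytic HiBiT luminescence read; response normalised to unmodified K562 and DMSO controls, four-parameter fit interpolated at 50% for IC50.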

Structures are written as SMILES.

One may read the IC50 as the concentration that inhibits the measured activity by half. `Cc1cn2cc(-c3cc(F)c4c(=O)n([C@H]5CCNC[C@@H]5F)cnc4c3)cc(F)c2n1` (relative stereo) [Compound 341, 5-fluoro-7-(8-fluoro-2-methylimidazo[1,2-a]pyridin-6-yl)-3-(trans-3-fluoropiperidin-4-yl)quinazolin-4(3H)-one]: the IC50 in experiment [1] is 0.1 to 1 µM; in experiment [2] it was 1 to 10 µM.

Take `Cc1cn2cc(-c3cc(F)c4c(=O)n([C@H]5CCN[C@@H](C)C5)cnc4c3)cc(F)c2n1` (relative stereo) [Compound 343, cis-5-fluoro-7-(8-fluoro-2-methylimidazo[1,2-a]pyridin-6-yl)-3-(2-methylpiperidin-4-yl)quinazolin-4(3H)-one]: the IC50 in experiment [1] was below 0.1 µM; in experiment [2], 0.1 to 1 µM.

For the compound `Cc1cn2nc(-c3cc(F)c4c(=O)n([C@H]5CCNC6(CC6)C5)cnc4c3)cc(C)c2n1` (single isomer, unassigned) [Compound 357], the concentration for half-maximal inhibition (IC50) in experiment [1] and in experiment [2] was below 0.1 µM in each case.

With `CN1CCN(c2ccc3c(=O)n(-c4ccc5nn(C)cc5c4)cnc3c2)CC1` [Compound 152], the IC50 in experiment [1] and in experiment [2] was above 10 µM each time.

As for `Cn1cc2cc(-n3cnc4cc(N5CCNCC5)ccc4c3=O)ccc2n1` [Compound 153], the IC50 in experiment [1] and in experiment [2] was above 10 µM in each case.

On to `Cc1cc(-c2ccc3c(=O)n(C4CCN(C)CC4)cnc3c2)cc2cn(C)nc12` [Compound 156], for which the IC50 in experiment [1] was 1 to 10 µM; in experiment [2] it was above 10 µM.

Turning to `Cc1cc(-c2ccc3c(=O)n(C4CC(C)(C)NC(C)(C)C4)cnc3c2)cc2cn(C)nc12` [Compound 157], the IC50 in experiment [1] and in experiment [2] was 1 to 10 µM throughout.

In the case of `Cn1cc2cc(-n3cnc4cc(C5=CCNCC5)ccc4c3=O)ccc2n1` [Compound 158], the IC50 in experiment [1] and in experiment [2] was 1 to 10 µM in each case.

As for `CN1CC=C(c2ccc3c(=O)n(-c4ccc5nn(C)cc5c4)cnc3c2)CC1` [Compound 159], the half-inhibitory concentration (IC50) in experiment [1] and in experiment [2] was above 10 µM throughout.

For the compound `CCN1CCC(n2ncc3cc(-c4cc(C)c5nc(C)cn5n4)ccc3c2=O)CC1` [Compound 266], the IC50 in experiment [1] and in experiment [2] was 0.1 to 1 µM each time.

For `Cc1cn2nc(-c3ccc4c(c3)CCN(C3CCNC(C)(C)C3)C4=O)cc(C)c2n1` (stereo not shown) [Compound 267], the figures for the IC50 in experiment [1] and in experiment [2] were 0.1 to 1 µM and 1 to 10 µM, respectively.

Consider `Cc1cn2nc(-c3ccc4c(c3)CCN(C3CCN(C)CC3)C4=O)cc(C)c2n1` [Compound 268], for which the half-inhibitory concentration (IC50) in experiment [1] was 0.1 to 1 µM; in experiment [2], above 10 µM.

`Cc1cn2nc(-c3ccc4c(c3)CCN(C3CCNC3)C4=O)cc(C)c2n1` (stereo not shown) [Compound 269]: the concentration for half-maximal inhibition (IC50) in experiment [1] and in experiment [2] was 1 to 10 µM each time.

As to `CCN1CCC(N2CCc3cc(-c4cc(C)c5nc(C)cn5n4)ccc3C2=O)CC1` [Compound 270], the IC50 was 0.1 to 1 µM in experiment [1] and above 10 µM in experiment [2].

Turning to `Cc1cn2nc(-c3ccc4c(=O)n(C5CCN(C)C5)ncc4c3)cc(C)c2n1` (stereo not shown) [Compound 271], the half-maximal inhibitory concentration (IC50) in experiment [1] and in experiment [2] was 1 to 10 µM in each case.

Regarding `Cc1cn2nc(-c3ccc4c(=O)n([C@@H]5CCN[C@H](C)C5)ncc4c3)cc(C)c2n1` [Compound 272], the half-inhibitory concentration (IC50) in experiment [1] and in experiment [2] was 0.1 to 1 µM in each case.

For the compound `Cc1cn2nc(-c3ccc4c(=O)n(C5CCNC6(CC6)C5)ncc4c3)cc(C)c2n1` (stereo not shown) [Compound 274], the concentration for half-maximal inhibition (IC50) in experiment [1] and in experiment [2] was below 0.1 µM each time.

`Cc1cn2cc(-c3ccc4c(=O)n(C5CCNCC5)ccc4c3)cc(F)c2n1` [Compound 276]: the 50% inhibitory concentration (IC50) in experiment [1] and in experiment [2] was below 0.1 µM in each case.

Turning to `Cc1cn2nc(-c3ccc4c(=O)n([C@@H]5CCN(C)[C@H](C)C5)ncc4c3)cc(C)c2n1` [Compound 277], the 50% inhibitory concentration (IC50) in experiment [1] and in experiment [2] was 0.1 to 1 µM throughout.

With `Cc1cn2nc(-c3ccc4c(=O)n([C@H]5CCN(C)[C@H](C)C5)ncc4c3)cc(C)c2n1` [Compound 278], the 50% inhibitory concentration (IC50) in experiment [1] and in experiment [2] was below 0.1 µM in each case.

In the case of `Cc1cn2nc(-c3ccc4c(=O)n(C5CCNC(C)(C)C5)ncc4c3)cc(C)c2n1` (stereo not shown) [Compound 279], the 50% inhibitory concentration (IC50) is 0.1 to 1 µM in experiment [1] and below 0.1 µM in experiment [2].

For `Cc1cn2nc(-c3ccc4c(=O)n([C@@H]5C[C@H]6CC[C@@H](C5)N6)ncc4c3)cc(C)c2n1` [Compound 280], the concentration for half-maximal inhibition (IC50) in experiment [1] and in experiment [2] was 0.1 to 1 µM throughout.

Regarding `Cc1cn2nc(-c3ccc4c(c3)CCN([C@@H]3CCN[C@H](C)C3)C4=O)cc(C)c2n1` [Compound 281], the concentration for half-maximal inhibition (IC50) in experiment [1] fell in the range of 0.1 to 1 µM; in experiment [2] it was 1 to 10 µM.

Turning to `Cc1cn2nc(-c3ccc4c(c3)CCN(C3CCN(C)C3)C4=O)cc(C)c2n1` (stereo not shown) [Compound 282], the figures for the IC50 in experiment [1] and in experiment [2] were 1 to 10 µM and above 10 µM, respectively.

With `Cc1cn2nc(-c3ccc4c(=O)n(C5CCCNCC5)ncc4c3)cc(C)c2n1` (stereo not shown) [Compound 283], the IC50 in experiment [1] and in experiment [2] was 0.1 to 1 µM in each case.

As to `O=c1c2ccc(-c3cn[nH]c3)cc2ncn1C1CCNCC1` [Compound 284], the results for the IC50 in experiment [1] and in experiment [2] were 1 to 10 µM and above 10 µM, respectively.

For `Cc1nc2c(F)cc(-c3ccc4c(=O)n(C5CCNCC5)cnc4c3)cc2s1` [Compound 285], the values for the IC50 in experiment [1] and in experiment [2] were 0.1 to 1 µM and 1 to 10 µM, respectively.

With `Cc1cn2cc(-c3ccc4c(=O)n(C5CCNCC5)cnc4c3)nc2c(C)n1` [Compound 286], the half-maximal inhibitory concentration (IC50) fell in the range of 0.1 to 1 µM in experiment [1] and 1 to 10 µM in experiment [2].

With `Cc1cn2nc(-c3ccc4c(=O)n(C5CCNCC5)cnc4c3)nc2c(C)n1` [Compound 287, 7-{6,8-dimethyl-[1,2,4]triazolo[1,5-a]pyrazin-2-yl}-3-(piperidin-4-yl)quinazolin-4-one], the IC50 in experiment [1] and in experiment [2] was 0.1 to 1 µM in each case.

Take `Cc1cn2nc(-c3ccc4c(=O)n(C5CCN(C)CC5)cnc4c3)nc2c(C)n1` [Compound 288, 7-{6,8-dimethyl-[1,2,4]triazolo[1,5-a]pyrazin-2-yl}1-3-(1-methylpiperidin-4-yl)quinazolin-4-one]: the concentration for half-maximal inhibition (IC50) in experiment [1] and in experiment [2] was 1 to 10 µM each time.

`Cc1cn2nc(-c3ccc4c(=O)n(C5CCN(C)CC5)cnc4c3F)cc(C)c2n1` [Compound 290]: the half-maximal inhibitory concentration (IC50) in experiment [1] and in experiment [2] was 0.1 to 1 µM each time.

Consider `Cc1cn2cc(-c3ccc4c(=O)n(C5CCNCC5)cnc4c3)cc(Cl)c2n1` [Compound 291], for which the IC50 in experiment [1] and in experiment [2] was 0.1 to 1 µM each time.

With `Cc1cn2cc(-c3ccc4c(=O)n(C5CCNCC5)cnc4c3)cc(C)c2n1` [Compound 292], the IC50 in experiment [1] was 0.1 to 1 µM; in experiment [2] it was 1 to 10 µM.

Regarding `Cc1cn2cc(-c3ccc4c(=O)n([C@@H]5CCN[C@@H](C)C5)cnc4c3)cc(F)c2n1` [Compound 293], the half-inhibitory concentration (IC50) in experiment [1] was in the range of 0.1 to 1 µM; in experiment [2], 1 to 10 µM.

For `Cc1cn2cc(-c3ccc4c(=O)n(C5CCN[C@@H](C)C5)cnc4c3)cc(F)c2n1` (stereo partly shown) [Compound 294], the concentration for half-maximal inhibition (IC50) fell in the range of 0.1 to 1 µM in experiment [1] and 1 to 10 µM in experiment [2].

As to `Cc1cn2cc(-c3ccc4c(=O)n([C@@H]5CCN[C@H](C)C5)cnc4c3)cc(F)c2n1` [Compound 295], the half-maximal inhibitory concentration (IC50) in experiment [1] and in experiment [2] was 1 to 10 µM each time.

As to `Cc1cn2cc(-c3ccc4c(=O)n([C@H]5CCN[C@H](C)C5)cnc4c3)cc(F)c2n1` [Compound 296], the IC50 in experiment [1] and in experiment [2] was 0.1 to 1 µM in each case.

Regarding `Cc1cn2cc(-c3ccc4c(=O)n(C5CCNCC5)cnc4c3)ncc2n1` [Compound 297], the IC50 in experiment [1] was 0.1 to 1 µM; in experiment [2], 1 to 10 µM.

For `Cc1cn2nc(-c3ccc4c(=O)n(C5CCNCC5)cnc4c3)cc2c(C)n1` [Compound 298], the IC50 lay within 0.1 to 1 µM in experiment [1] and 1 to 10 µM in experiment [2].

As for `CN1CCC(n2cnc3cc(-c4cn[nH]c4)ccc3c2=O)CC1` [Compound 299], the IC50 in experiment [1] and in experiment [2] was above 10 µM in each case.

Regarding `Cc1nc2c(F)cc(-c3ccc4c(=O)n(C5CCN(C)CC5)cnc4c3)cc2o1` [Compound 300], the IC50 lay in the range of 0.1 to 1 µM in experiment [1] and 1 to 10 µM in experiment [2].

With `Cc1nc2c(F)cc(-c3ccc4c(=O)n(C5CCN(C)CC5)cnc4c3)cc2s1` [Compound 301], the concentration for half-maximal inhibition (IC50) in experiment [1] and in experiment [2] was 1 to 10 µM throughout.

With `Cc1cn2cc(-c3ccc4c(=O)n(C5CCN(C)CC5)cnc4c3)nc2c(C)n1` [Compound 302], the half-inhibitory concentration (IC50) in experiment [1] and in experiment [2] was 1 to 10 µM throughout.

As for `Cc1cn2nc(-c3ccc4c(=O)n(C5CCN(C)CC5)cnc4c3)cc2c(C)n1` [Compound 303], the 50% inhibitory concentration (IC50) in experiment [1] and in experiment [2] was 1 to 10 µM throughout.

On to `CC[C@@H]1C[C@H](n2ncc3cc(-c4cc(C)c5nc(C)cn5n4)ccc3c2=O)CCN1` [Compound 304], for which the 50% inhibitory concentration (IC50) in experiment [1] and in experiment [2] was 0.1 to 1 µM in each case.

On to `Cc1cn2cc(-c3ccc4c(=O)n(C5CCNCC5)cnc4c3)cc(C(F)(F)F)c2n1` [Compound 306], for which the IC50 in experiment [1] and in experiment [2] was 1 to 10 µM throughout.

As to `Cc1cn2cc(-c3ccc4c(=O)n(C5CCN(C)CC5)cnc4c3)ncc2n1` [Compound 308], the concentration for half-maximal inhibition (IC50) in experiment [1] and in experiment [2] was 1 to 10 µM each time.

For the compound `Cc1cn2nc(-c3ccc4c(=O)n(C5CCN(C)CC5)ccc4c3)cc(C)c2n1` [Compound 310], the IC50 in experiment [1] and in experiment [2] was 0.1 to 1 µM in each case.

Consider `Cc1cc(-c2cnc3c(=O)n(C4CCNCC4)cnc3c2)cc2cn(C)nc12` [Compound 311], for which the half-maximal inhibitory concentration (IC50) in experiment [1] and in experiment [2] was 1 to 10 µM each time.

In the case of `Cc1cn2nc(-c3cc(F)c4c(=O)n(C5CCNC6(CC6)C5)ncc4c3)cc(C)c2n1` (stereo not shown) [Compound 312], the 50% inhibitory concentration (IC50) in experiment [1] and in experiment [2] was below 0.1 µM each time.
